In US7772271B2 (priority 2004, dated 2010):
Read-outs that look alike come from different tables or passages of the source.

Assays:
wild-type poliovirus = format: cell-based
PV IRES = assay: cells; format: cell-based, poliovirus
[1] = 1 μM compound, Hela cells infected with wild-type poliovirus at MOI 0.1, treated for one day, CPE score
[2] = 10 μM compound, Hela cells infected with wild-type poliovirus at MOI 0.1, treated for one day, CPE score
[3] = 100 μM compound, Hela cells infected with wild-type poliovirus at MOI 0.1, treated for one day, CPE score
[4] = Enterovirus C, HEK-293T, 20 h, read-out: WTPV mono luc IC50 (μM)

## COc1ccc(-n2cc(C#N)c3ccc(OC)cc32)cc1 [compound 4]
wild-type poliovirus
  WT-PV CPE (1 μM)*: 1
  WT-PV CPE (10 μM)*: 2
  WT-PV CPE (100 μM)*: 3
PV IRES; read-out: WTPV mono luc IC50
  IC50: 0.8 µM

## CCn1cc(C#N)c2ccc(OC)cc21 [compound 5, 1-ethyl-6-methoxy-1H-indole-3-carbonitrile]
wild-type poliovirus; [1]
  WT-PV CPE (1 μM)*: 1
wild-type poliovirus; [2]
  WT-PV CPE (10 μM)*: 2
wild-type poliovirus; [3]
  WT-PV CPE (100 μM)*: 3
PV IRES; [4]
  IC50: 9 µM

## CCOc1ccc2c(C#N)cn(CC)c2c1 [compound 9, 6-ethoxy-1-ethyl-1H-indole-3-carbonitrile]
wild-type poliovirus; [1]
  WT-PV CPE (1 μM)*: 2
wild-type poliovirus; [2]
  WT-PV CPE (10 μM)*: 2
wild-type poliovirus; [3]
  WT-PV CPE (100 μM)*: 3
PV IRES; [4]
  IC50: > 100 µM

## CCn1cc(C#N)c2ccc(OC(C)C)cc21 [compound 10]
wild-type poliovirus
  WT-PV CPE (1 μM)*: 2
  WT-PV CPE (10 μM)*: 2
  WT-PV CPE (100 μM)*: 3
PV IRES; read-out: WTPV mono luc IC50
  IC50: > 100 µM

## CCn1c(-c2ccc(OC)cc2)c(C#N)c2ccc(OC)cc21 [compound 19]
wild-type poliovirus
  WT-PV CPE (1 μM)*: 1
  WT-PV CPE (10 μM)*: 2
  WT-PV CPE (100 μM)*: 3
PV IRES; read-out: WTPV mono luc IC50
  IC50: 15 µM

## COc1ccc2c(C#N)c(C)n(-c3ccc4c(c3)OCO4)c2c1 [compound 24]
wild-type poliovirus
  WT-PV CPE (1 μM)*: 2
  WT-PV CPE (10 μM)*: 2
  WT-PV CPE (100 μM)*: 3
PV IRES; read-out: WTPV mono luc IC50
  IC50: 1.5 µM

## CC(C)OC(=O)Nc1ccc(-c2c(C#N)c3ccc(OCC(O)Cn4cncn4)cc3n2C2CCC2)cc1 (stereo not shown) [compound 1420, {4-[3-Cyano-1-cyclobutyl-6-(2-hydroxy-3-[1,2,4]triazol-1-yl-propoxy)-1H-indol-2-yl]-phenyl}-carbamic acid isopropyl ester]
other
  melting point: 209 to 215 °C

## COCCOc1ccc2c(C#N)c(-c3ccc(NC(=O)OC(C)C4CC4)cc3)n(C3CCC3)c2c1 (stereo not shown) [compound 1423, [4-(3-cyano-1-cyclobutyl-6-(2-methoxyethoxy)-1H-indol-2-yl)-phenyl]-carbamic acid 1-cyclopropyl-ethyl ester]
other
  melting point: 192 to 193 °C

## CCOc1ccc2c(C#N)c(-c3ccc(NC(=O)OCCOCCOC)cc3)n(C3CCC3)c2c1 [compound 1424, [4-(3-cyano-1-cyclobutyl-6-ethoxy-1H-indol-2-yl)-phenyl]-carbamic acid 2-(2-methoxyethoxy)-ethyl ester]
other
  melting point: 65 to 72 °C

## CCOc1ccc2c(C#N)c(-c3ccc(N(CC)C(=O)NC4CCCC4)cc3)n(C3CCC3)c2c1 [compound 1425, 1-[4-(3-cyano-1-cyclobutyl-6-ethoxy-1H-indol-2-yl)-phenyl]-3-cyclopenyl-1-ethyl-urea]
other
  melting point: 153 to 160 °C

## CC(C)OC(=O)Nc1ccc(-c2c(C#N)c3ccc(OCCC4COC(C)(C)O4)cc3n2C2CCC2)cc1 (stereo not shown) [compound 1428, (4-{3-cyano-1-cyclobutyl-6-[2-(2,2-dimethyl-[1,3]dioxolan-4-yl)-ethoxy]-1H-indol-2-yl}-phenyl)-carbamic acid isopropyl ester]
other
  melting point: 141 to 145 °C

## CC(C)OC(=O)Nc1ccc(-c2c(C#N)c3ccc(OCCC(O)CO)cc3n2C2CCC2)cc1 (stereo not shown) [compound 1429, {4-[3-cyano-1-cyclobutyl-6-(3,4-dihydroxy-butoxy)-1H-indol-2-yl]-phenyl}-carbamic acid isopropyl ester]
other
  melting point: 132 to 134 °C

## CCOc1ccc2c(C#N)c(-c3ccc(NCCc4ccccn4)cc3)n(C3CCC3)c2c1 [compound 1433, 1-cyclobutyl-6-ethoxy-2-[4-(2-pyridin-2-yl-ethylamino)-phenyl]-1H-indole-3-carbonitrile]
other
  melting point: 153 to 156 °C

## CC(OC(=O)Nc1ccc(-c2c(C#N)c3ccc(OC4CCCO4)cc3n2C2CC2)cc1)C1CC1 (stereo not shown) [compound 1444, {4-[3-cyano-1-cyclopropyl-6-(tetrahydrofuran-2-yloxy)indol-2-yl]phenyl}carbamic acid 1-cyclopropylethyl ester]
other
  melting point: 189 to 191 °C

## CC(C)OC(=O)Nc1ccc(-c2c(C#N)c3ccc(OC4CCOCC4)cc3n2C2CCC2)cc1 [compound 2616, {4-[3-cyano-1-cyclobutyl-6-(tetrahydro-pyran-4-yloxy)-1H-indole-2-yl]-phenyl}-carbamic acid isopropyl ester]
other
  melting point: 197 to 199 °C

## CCOc1ccc2c(I)c(-c3ccc(NC(=O)OC(C)C)cc3)n(CC3CC3)c2c1 [compound 2634, [4-(1-cyclopropylmethyl-6-ethoxy-3-iodo-1H-indol-2-yl)-phenyl]-carbamic acid isopropyl ester]
other
  melting point: 135 to 140 °C

## CCOc1ccc2c(C#CC3CC3)c(-c3ccc(NC(=O)OC(C)C)cc3)n(CC3CC3)c2c1 [compound 2635, [4-(3-cyclopropylethynyl-1-cyclopropylmethyl-6-ethoxy-1H-indol-2-yl)-phenyl]-carbamic acid isopropyl ester]
other
  melting point: 175 to 180 °C

## CCOc1ccc2c(F)c(-c3ccc(NC(=O)OC(C)C)cc3)n(CC3CC3)c2c1 [compound 2640, [4-(1-Cyclopropylmethyl-6-ethoxy-3-fluoro-1H-indol-2-yl)-phenyl]-carbamic acid isopropyl ester]
other
  melting point: 178 to 184 °C

## CCOc1ccc2c(Br)c(-c3ccc(NC(=O)OC(C)C)cc3)n(CC3CC3)c2c1 [compound 2691, [4-(3-bromo-1-cyclopropylmethyl-6-ethoxy-1H-indol-2-yl)-phenyl]-carbamic acid isopropyl ester]
other
  melting point: 128 to 132 °C

## CC(OC(=O)Nc1ccc(-c2c(C#N)c3ccc(OCCS(C)(=O)=O)cc3n2C2CCC2)cc1)C1CC1 (stereo not shown) [compound 2695, {4-[3-Cyano-1-cyclobutyl-6-(2-methanesulfonyl-ethoxy)-1H-indol-2-yl]-phenyl}-carbamic acid 1-cyclopropyl-ethyl ester]
other
  melting point: 135 to 140 °C

## CCSc1ccc2c(C#N)c(-c3ccc(NC(=O)O[C@H](C)C4CC4)cc3)n(C3CCC3)c2c1 [compound 2720, (R)-[4-(3-cyano-1-cyclobutyl-6-ethylsulfanyl-1H-indol-2-yl)-phenyl]-carbamic acid 1-cyclopropyl-ethyl ester]
other
  melting point: 120 to 122 °C

## CC(C)OC(=O)Nc1ccc(-c2c(C#N)c3ccc(N4CCOCC4)cc3n2C2CCC2)cc1 [compound 2800, [4-(3-cyano-1-cyclobutyl-6-morpholin-4-yl-1H-indol-2-yl)-phenyl]-carbamic acid isopropyl ester]
other
  melting point: 206 to 208 °C

## COc1ccc2c(Cl)c(-c3ccc(NC(=O)OC(C)C)cc3)n(CC3CC3)c2c1 [compound 2804, [4-(3-chloro-1-cyclopropylmethyl-6-methoxy-1H-indol-2-yl)-phenyl]-carbamic acid isopropyl ester]
other
  melting point: 171 to 177 °C

## CC(OC(=O)Nc1ccc(-c2cc3ccc(Oc4ncccn4)cc3n2C2CCC2)cc1)C(F)(F)F (stereo not shown) [compound 2888, {4-[1-cyclobutyl-6-(pyrimidin-2-yloxy)-1H-indole-2-yl]-phenyl}-carbamic acid 2,2,2-trifluoro-1-methyl-ethyl ester]
other
  melting point: 99 to 101 °C

## C[C@@H](OC(=O)Nc1ccc(-c2c(C#N)c3ccc(OCS(C)(=O)=O)cc3n2C2CCC2)cc1)C1CC1 [compound 2988, (R)-[4-(3-cyano-1-cyclobutyl-6-methanesulfonylmethoxy-1H-indol-2-yl)-phenyl]-carbamic acid 1-cyclopropyl-ethyl ester]
other
  melting point: 218 to 223 °C

## Cc1csc(Nc2ccc(-c3c(C#N)c4ccc(Oc5ncccn5)cc4n3C3CCC3)cc2)n1 [compound 3180, 1-cyclobutyl-2-[4-(4-methyl-thiazol-2-ylamino)-phenyl]-6-(pyrimidin-2-yloxy)-1H-indole-3-carbonitrile]
other
  melting point: 223 to 225 °C

## CC(C)OC(=O)Nc1ccc(-c2c(C#N)c3ccc(OC4CCS(=O)(=O)CC4)cc3n2C2CCC2)cc1 [compound 3182, {4-[3-cyano-1-cyclobutyl-6-(1,1-dioxo-hexahydro-1λ^6-thiopyran-4-yloxy)-1H-indol-2-yl]-phenyl}-carbamic acid isopropyl ester]
other
  melting point: 245 to 249 °C

## Cc1cc(Nc2ccc(-c3c(C#N)c4ccc(Oc5ncccn5)cc4n3C3CCC3)cc2)n(C)n1 [compound 3285, 1-cyclobutyl-2-[4-(2,5-dimethyl-2H-pyrazol-3-ylamino)-phenyl]-6-(pyrimidin-2-yloxy)-1H-indole-3-carbonitrile]
other
  melting point: 236 to 238 °C
